Reference: patent US20250042876A1, “HERBICIDAL PYRAZOLE PYRIMIDINE COMPOUNDS” (SYNGENTA CROP PROTECTION AG, priority 2021, published 2025)

Tests used:
Format in all cases: in vivo
Conditions in all cases: 250 g/ha, evaluated after 13 days
[1] = system: Amaranthus retoflexus (AMARE); test: Post-emergence herbicidal test, glasshouse
Procedure: (§1) Seeds of a variety of test species are sown in standard soil in pots Amaranthus palmeri (AMAPA), Amaranthus retoflexus (AMARE), Setaria faberi (SETFA), Echinochloa crus-galli (ECHCG), Ipomoea hederacea (IPOHE)). After cultivation for one day (pre-emergence) or after 8 days cultivation (post-emergence) under controlled conditions in a glasshouse (at 24/16° C., day/night; 14 hours light; 65% humidity), the plants are sprayed with an aqueous spray solution derived from the formulation of the technical active ingredient in acetone/water (50:50) solution containing 0.5% Tween 20 (polyoxyethelyene sorbitan monolaurate, CAS RN 9005-64-5). Compounds are applied at 250 g/ha unless otherwise stated. The test plants are then grown in a glasshouse under controlled conditions in a glasshouse (at 24/16° C., day/night; 14 hours light; 65% humidity) and watered twice daily. After 13 days for pre and post-emergence, the test is evaluated for the percentage damage caused to the plant. The biological activities are shown in the following table on a five-point scale (5=81-100%; 4=61-80%; 3=41-60%; 2=21-40%; 1=0-20%).

[2] = system: Amaranthus palmeri (AMAPA); test: Post-emergence herbicidal test, glasshouse
Procedure: as §1

[3] = system: Ipomoea hederacea (IPOHE); test: Post-emergence herbicidal test, glasshouse
Procedure: as §1

Setaria faberi (SETFA) [4] = test: Post-emergence herbicidal test, glasshouse
Procedure: as §1

[5] = system: Echinochloa crus-galli (ECHCG); test: Post-emergence herbicidal test, glasshouse
Procedure: as §1

[6] = system: Amaranthus retoflexus (AMARE); test: Pre-emergence herbicidal test, glasshouse
Procedure: as §1

[7] = system: Amaranthus palmeri (AMAPA); test: Pre-emergence herbicidal test, glasshouse
Procedure: as §1

[8] = system: Ipomoea hederacea (IPOHE); test: Pre-emergence herbicidal test, glasshouse
Procedure: as §1

Setaria faberi (SETFA) [9] = test: Pre-emergence herbicidal test, glasshouse
Procedure: as §1

[10] = system: Echinochloa crus-galli (ECHCG); test: Pre-emergence herbicidal test, glasshouse
Procedure: as §1

## FC(F)(F)c1ccc(-n2nc(C(F)(F)F)cc2Cc2ncc(Br)cn2)cc1 [Compound 1.002, 5-bromo-2-[[5-(trifluoromethyl)-2-[4-(trifluoromethyl)phenyl]pyrazol-3-yl]methyl]pyrimidine]
[1]
  AMARE percentage damage caused to the plant (five-point scale): 4 (4=61-80%)
[2]
  AMAPA percentage damage caused to the plant (five-point scale): 4 (4=61-80%)
[3]
  IPOHE percentage damage caused to the plant (five-point scale): 4 (4=61-80%)
Setaria faberi (SETFA) [4]
  SETFA percentage damage caused to the plant (five-point scale): 4 (4=61-80%)
[5]
  ECHCG percentage damage caused to the plant (five-point scale): 5 (5=81-100%)
[6]
  AMARE percentage damage caused to the plant (five-point scale): 5 (5=81-100%)
[7]
  AMAPA percentage damage caused to the plant (five-point scale): 5 (5=81-100%)
[8]
  IPOHE percentage damage caused to the plant (five-point scale): 5 (5=81-100%)
Setaria faberi (SETFA) [9]
  SETFA percentage damage caused to the plant (five-point scale): 4 (4=61-80%)
[10]
  ECHCG percentage damage caused to the plant (five-point scale): 5 (5=81-100%)

## Fc1cnc(Cc2cc(C(F)(F)F)nn2-c2ccc(C(F)(F)F)cc2)nc1 [Compound 1.003]
[1]
  AMARE percentage damage caused to the plant (five-point scale): 5 (5=81-100%)
[2]
  AMAPA percentage damage caused to the plant (five-point scale): 5 (5=81-100%)
[3]
  IPOHE percentage damage caused to the plant (five-point scale): 5 (5=81-100%)
Setaria faberi (SETFA) [4]
  SETFA percentage damage caused to the plant (five-point scale): 4 (4=61-80%)
[5]
  ECHCG percentage damage caused to the plant (five-point scale): 5 (5=81-100%)
[6]
  AMARE percentage damage caused to the plant (five-point scale): 5 (5=81-100%)
[7]
  AMAPA percentage damage caused to the plant (five-point scale): 5 (5=81-100%)
[8]
  IPOHE percentage damage caused to the plant (five-point scale): 5 (5=81-100%)
Setaria faberi (SETFA) [9]
  SETFA percentage damage caused to the plant (five-point scale): 5 (5=81-100%)
[10]
  ECHCG percentage damage caused to the plant (five-point scale): 5 (5=81-100%)

## COc1cnc(Cc2cc(C(F)(F)F)nn2-c2ccc(C(F)(F)F)cc2)nc1 [Compound 1.004]
[1]
  AMARE percentage damage caused to the plant (five-point scale): 5 (5=81-100%)
[2]
  AMAPA percentage damage caused to the plant (five-point scale): 5 (5=81-100%)
[3]
  IPOHE percentage damage caused to the plant (five-point scale): 4 (4=61-80%)
Setaria faberi (SETFA) [4]
  SETFA percentage damage caused to the plant (five-point scale): 5 (5=81-100%)
[5]
  ECHCG percentage damage caused to the plant (five-point scale): 5 (5=81-100%)
[6]
  AMARE percentage damage caused to the plant (five-point scale): 5 (5=81-100%)
[7]
  AMAPA percentage damage caused to the plant (five-point scale): 5 (5=81-100%)
[8]
  IPOHE percentage damage caused to the plant (five-point scale): 5 (5=81-100%)
Setaria faberi (SETFA) [9]
  SETFA percentage damage caused to the plant (five-point scale): 5 (5=81-100%)
[10]
  ECHCG percentage damage caused to the plant (five-point scale): 5 (5=81-100%)

## N#Cc1ccc(-n2nc(C(F)(F)F)cc2Cc2ncc(Cl)cn2)cc1 [Compound 1.007, 4-[5-[(5-chloropyrimidin-2-yl)methyl]-3-(trifluoromethyl)pyrazol-1-yl]benzonitrile]
[1]
  AMARE percentage damage caused to the plant (five-point scale): 5 (5=81-100%)
[2]
  AMAPA percentage damage caused to the plant (five-point scale): 5 (5=81-100%)
[3]
  IPOHE percentage damage caused to the plant (five-point scale): 3 (3=41-60%)
Setaria faberi (SETFA) [4]
  SETFA percentage damage caused to the plant (five-point scale): 5 (5=81-100%)
[5]
  ECHCG percentage damage caused to the plant (five-point scale): 5 (5=81-100%)
[6]
  AMARE percentage damage caused to the plant (five-point scale): 5 (5=81-100%)
[7]
  AMAPA percentage damage caused to the plant (five-point scale): 5 (5=81-100%)
[8]
  IPOHE percentage damage caused to the plant (five-point scale): 5 (5=81-100%)
Setaria faberi (SETFA) [9]
  SETFA percentage damage caused to the plant (five-point scale): 5 (5=81-100%)
[10]
  ECHCG percentage damage caused to the plant (five-point scale): 5 (5=81-100%)

## FC(F)(F)c1cc(Cc2ncc(Cl)cn2)n(-c2ccc(Cl)cc2)n1 [Compound 1.008]
[1]
  AMARE percentage damage caused to the plant (five-point scale): 5 (5=81-100%)
[2]
  AMAPA percentage damage caused to the plant (five-point scale): 5 (5=81-100%)
[3]
  IPOHE percentage damage caused to the plant (five-point scale): 3 (3=41-60%)
Setaria faberi (SETFA) [4]
  SETFA percentage damage caused to the plant (five-point scale): 5 (5=81-100%)
[5]
  ECHCG percentage damage caused to the plant (five-point scale): 5 (5=81-100%)
[6]
  AMARE percentage damage caused to the plant (five-point scale): 5 (5=81-100%)
[7]
  AMAPA percentage damage caused to the plant (five-point scale): 5 (5=81-100%)
[8]
  IPOHE percentage damage caused to the plant (five-point scale): 4 (4=61-80%)
Setaria faberi (SETFA) [9]
  SETFA percentage damage caused to the plant (five-point scale): 5 (5=81-100%)
[10]
  ECHCG percentage damage caused to the plant (five-point scale): 5 (5=81-100%)
